Converted amounts (≈) assume the structure as drawn.
Columns and labels:
[1] = tested on: 5 kinds of human solid cancer cell lines; experiment: In vitro antitumor activity against 5 human solid cancer cell lines compared with cisplatin (SRB assay); assay type: cell-based; settings: in words
Method: Antitumor activities of the compounds of present invention were tested. Antitumor activities of compounds of the present invention were tested in vitro against 5 kinds of human tumor cell lines and 2 kinds of leukemia tumor cell lines. The method of in vitro test is as follows.
B. Method of test(SRB Assay Method)
a. Human solid tumor cell lines, […](non-small lung cell), SKMEL-2(melanoma), HCT-15(colon), SKOV-3(ovarian), XF-498(CNS) were cultured at 37° C., in 5% CO2 incubater using the RPMI 1640 media containing 10% FBS, while they were transfer-cultured successively once or twice per week. Cell cultures were dissolved into the solution of 0.25% trypsin and 3 mM CDTA PBS(-) and then cells were separated from media which the cells were sticked on.
b. 5×10^3 -2×10^4 cells were added into each well of 96-well plate and cultured in 5% CO2 incubater, at 37° C., for 24 hours.
c. Each sample drugs was dissolved in a small quantity of DMSO, and diluted to concentrations prescribed in experiment with media, and then the final concentration of DMSO was controlled below 0.5%.
d. A medium of each well cultured for 24 hours as above b., was removed by aspiration. 200 μl of drug samples prepared in c. was added into each well and the wells were cultured for 48 hours. Tz(time zero) plates were collected at the point of time drugs were added.
e. After Tz plates and plates were treated with cell fixing by TCA of SRB assay method, staining of 0.4% SRB solution, washing with 1% acetic acid, OD values were measured at 520 nm, following elution of dye with 10 mM Tris solution.
e. If T≥Tz, cellular response function was calculated with 100×(T-Tz)/(C-Tz), and if T<Tz, with 100×(T-Tz)/Tz.

[2] = tested on: L1210 (mouse leukemia cell); experiment: In vitro antitumor effects against animal leukemia cells (dye exclusion assay), L1210; assay type: cell-based; settings: Mus musculus, L1210, 48 h, 50% cell growth inhibition, 37° C., trypan blue, read-out: ED50 (the source's name)
Method: L1210(mouse leukemia cell)
(§1) B. Method of Experiment(Dye Exclusion Assay)
(§2) 2) Sample drugs diluted with log dose were added into the cells, and it were cultured at 37° C., for 48 hours, in […] incubater, and then viable cell number was measured, Viable cell number was measured with dye exclusion test using trypan blue.

[3] = tested on: P388 (mouse lymphoid neoplasma cell); experiment: In vitro antitumor effects against animal leukemia cells (dye exclusion assay), P388; assay type: cell-based; settings: Mus musculus, P388, 48 h, 50% cell growth inhibition, 37° C., trypan blue, read-out: ED50 (the source's name)
Method: P388 (mouse lymphoid neoplasma cell)
as §1, §2

[4] = tested on: L1210 and P388 mouse cancer cells; experiment: In vitro antitumor activity against L1210 and P388 compared with mitomycin C (dye exclusion assay); assay type: cell-based; settings: in words
Method: as §1
1) L-1210 and P388 cells that were cultured in RPMI 1640 media containing 10% FBS were regulated as the cell concentration of 1×10^6 cells/ml.
as §2
3) The concentration of sample compounds of 50% cell growth inhibition compared with standard group was determined as IC50.

[5] = tested on: ICR mice; experiment: Acute toxicity test (LD50), Litchfield-Wilcoxon method; assay type: in vivo, mouse; parameters: unit not given here; settings: male ICR mice, 14 days

Structure (SMILES)	antitumor activities compared with cisplatin [1]	IC50 [2]	IC50 [3]	antitumor activities compared with mitomycin C [4]	LD50 ([5]; i.p.)	LD50 ([5]; p.o.)
COc1nc(C)c(C)cc1NC(=O)N1CCN(c2cccc(O)c2)CC1 [Example 113]	superior antitumor activities to those of cisplatin	–	–	–	–	–
CCc1cc(NC(=O)N2CCN(c3cc(Cl)ccc3OC)CC2)c(OC)nc1C [Example 49, 1-[(5-ethyl-2-methoxy-6-methylpyridin-3-yl)aminocarbonyl]-4-(5-chloro-2-methioxyphenyl)piperazine]	superior antitumor activities to those of cisplatin	1.3 µg/mL (≈ 3.1 µM)	0.6 µg/mL (≈ 1.43 µM)	same or more excellent antitumor activities	–	–
CCc1cc(NC(=O)N2CCN(c3cc(OC)ccc3Cl)CC2)c(OC)nc1C [Example 50, 1-[(5-ethyl-2-methoxy-6-methylpyridin-3-yl)aminocarbonyl]-4-(2-chloro-5-methoxyphenyl)piperazine]	superior antitumor activities to those of cisplatin	2 µg/mL (≈ 4.77 µM)	1.5 µg/mL (≈ 3.58 µM)	–	–	–
CCc1cc(NC(=O)N2CCN(c3cccc(O)c3C)CC2)c(OC)nc1C [Example 55, 1-[(5-ethyl-2-methoxy-6-methylpyridin-3-yl)aminocarbonyl]-4-(3-hydroxy-2-methylphenyl)piperazine]	superior antitumor activities to those of cisplatin	–	–	–	–	–
COc1cc(OC)cc(N2CCN(C(=S)Nc3cc(C)c(C)nc3OC)CC2)c1 [Example 129, 1-[(5,6-dimethyl-2-methoxypyridin-3-yl)aminothiocarbonyl]-4-(3,5-dimethoxyphenyl)piperazine]	superior antitumor activities to those of cisplatin	–	–	–	–	–
CCc1cc(NC(=O)N2CCN(c3cccc(O)c3)CC2)c(OC)nc1C [Example 38, 1-[(5-ethyl-2-methoxy-6-methylpyridin-3-yl)aminocarbonyl]-4-(3-hydroxyphenyl)piperazine]	superior antitumor activities to those of cisplatin	1.4 µg/mL (≈ 3.78 µM)	1 µg/mL (≈ 2.7 µM)	same or more excellent antitumor activities	–	–
CCc1cc(NC(=S)N2CCN(c3cccc(Cl)c3)CC2)c(OC)nc1C [Example 98, 1-[(5-ethyl-2-methoxy-6-methylpyridin-3-yl)aminothiocarbonyl]-4-(3-chlorophenyl)piperazine]	superior antitumor activities to those of cisplatin	2 µg/mL (≈ 4.94 µM)	2.1 µg/mL (≈ 5.19 µM)	–	> 1,800	> 2,000
COc1ccccc1N1CCN(C(=S)Nc2cc(C)c(C)nc2OC)CC1 [Example 128]	superior antitumor activities to those of cisplatin	0.5 µg/mL (≈ 1.29 µM)	0.2 µg/mL (≈ 0.517 µM)	same or more excellent antitumor activities	–	–
CCc1cc(NC(=S)N2CCN(c3ccccc3OC)CC2)c(OC)nc1C [Example 97, 1-[(5-ethyl-2-methoxy-6-methylpyridin-3-yl)aminothiocarbonyl]-4-(2-methoxyphenyl)piperazine]	superior antitumor activities to those of cisplatin	2 µg/mL (≈ 4.99 µM)	1.6 µg/mL (≈ 3.99 µM)	–	1,100	–
COc1nc(C)c(C)cc1NC(=O)N1CCN(c2cccc(OC(C)=O)c2)CC1 [Example 115, 1-[(5,6-dimethyl-2-methoxypyridin-3-yl)aminocarbonyl]-4-(3-acetoxyphenyl)piperazine]	superior antitumor activities to those of cisplatin	–	–	–	–	–
CCc1cc(CNC(=O)N2CCN(c3ccccc3F)CC2)c(OC)nc1C [Example 61]	superior antitumor activities to those of cisplatin	–	–	–	> 1,687	–
COc1ccc(C)c(N2CCN(C(=O)Nc3cc(C)c(C)nc3OC)CC2)c1 [Example 121]	superior antitumor activities to those of cisplatin	–	–	–	–	–
CCc1cc(NC(=O)N2CCN(c3cc(OC)ccc3C)CC2)c(OC)nc1C [Example 48, 1-[(5-ethyl-2-methoxy-6-methylpyridin-3-yl)aminocarbonyl]-4-(5-methoxy-2-methylphenyl)piperazine]	superior antitumor activities to those of cisplatin	1.9 µg/mL (≈ 4.77 µM)	1.8 µg/mL (≈ 4.52 µM)	same or more excellent antitumor activities	–	–
COc1nc(C)c(C)cc1NC(=O)N1CCN(c2cccc(Cl)c2)CC1 [Example 109, 1-[(5,6-dimethyl-2-methoxypyridin-3-yl)aminocarbonyl]-4-(3-chlorophenyl)piperazine]	superior antitumor activities to those of cisplatin	–	–	–	2,000	> 2,073
COc1nc(C)c(C)cc1NC(=O)N1CCN(c2cccc(C)c2C)CC1 [Example 119, 1-[(5,6-dimethyl-2-methoxypyridin-3-yl)aminocarbonyl]-4-(2,3-xylyl)piperazine]	superior antitumor activities to those of cisplatin	2.2 µg/mL (≈ 5.97 µM)	2 µg/mL (≈ 5.43 µM)	–	–	–
CCc1cc(NC(=O)N2CCN(c3cc(C)ccc3OC)CC2)c(OC)nc1C [Example 47, 1-[(5-ethyl-2-methoxy-6-methylpyridin-3-yl)aminocarbonyl]-4-(2-methoxy-5-methylphenyl)piperazine]	superior antitumor activities to those of cisplatin	0.3 µg/mL (≈ 0.753 µM)	0.3 µg/mL (≈ 0.753 µM)	same or more excellent antitumor activities	–	–
CCc1cc(NC(=S)N2CCN(c3cc(OC)cc(OC)c3)CC2)c(OC)nc1C [Example 100, 1-[(5-ethyl-2-methoxy-6-methylpyridin-3-yl)aminothiocarbonyl]-4-(3,5-dimethoxyphenyl)piperazine]	superior antitumor activities to those of cisplatin	–	–	–	–	–
C#CCNc1cccnc1N1CCN(C(=O)NCc2cc(CC)c(C)nc2OC)CC1 [Example 144, 1-[(5-ethyl-2-methoxy-6-methylpyridin-3-yl)methylaminocarbonyl]-4-[(3-propargylamino)pyridin-2-yl]piperazine]	superior antitumor activities to those of cisplatin	–	–	–	–	–
COc1nc(C)c(C)cc1NC(=O)N1CCN(c2cc(F)cc(F)c2)CC1 [Example 111, 1-[(5,6-dimethyl-2-methoxypyridin-3-yl)aminocarbonyl]-4-(3,5-difluorophenyl)piperazine]	superior antitumor activities to those of cisplatin	–	–	–	–	–
CCc1cc(NC(=O)N2CCN(c3cccc(Cl)c3)CC2)c(NC)nc1C [Example 91]	superior antitumor activities to those of cisplatin	–	–	–	–	–
COc1nc(C)c(C)cc1NC(=S)N1CCN(c2cccc(Cl)c2)CC1 [Example 126, 1-[(5,6-dimethyl-2-methoxypyridin-3-yl)aminothiocarbonyl]-4-(3-chlorophenyl) piperazine]	superior antitumor activities to those of cisplatin	–	–	–	–	–
CCc1cc(NC(=O)N2CCN(c3cccc(C)c3C)CC2)c(OC)nc1C [Example 28, 1-[(5-ethyl-2-methoxy-6-methylpyridin-3-yl)aminocarbonyl]-4-(2,3-dimethylphenyl)piperazine]	superior antitumor activities to those of cisplatin	–	–	–	> 1,800	> 2,000

— US5780472A, “Piperazine derivatives and methods for the preparation thereof and compositions containing the same” (Samjin Pharmaceuticazl Co., Ltd., priority 1995, dated 1998)
